Reference: ChEMBL document CHEMBL1133024, “Antineoplastic agents. 443. Synthesis of the cancer cell growth inhibitor hydroxyphenstatin and its sodium diphosphate prodrug” (J Med Chem, 2000)
Converted amounts (≈) assume the structure as drawn.

Legend:
Candida albicans = assay: Evaluated for antimicrobial activity against Candida albicans; type: functional
Cryptococcus neoformans = assay: Evaluated for antimicrobial activity against Cryptococcus neoformans; type: functional
Neisseria gonorrhoeae = assay: Evaluated for antimicrobial activity against Neisseria gonorrhoeae; type: functional
Escherichia coli = assay: Evaluated for antimicrobial activity against Escherichia coli; type: functional
Tubulin alpha chain = Tubulin alpha chain (Sus scrofa, UniProt P02550); assay: Inhibition of tubulin polymerization; type: functional
P388 = assay: Evaluated for growth inhibition (anticancer activity) of Murine P388 lymphocytic leukemia cell line; type: functional; settings: Mus musculus
NCI-H460 [1] = assay: Evaluated for growth inhibition (anticancer activity) of Human lung-NSC cancer NCI-H460 cell line
[2] = target: Tubulin alpha chain (Sus scrofa) (UniProt P02550); assay: Inhibition of colchicine binding; type: functional; settings: concentration not given here
BXPC-3 = assay: Evaluated for growth inhibition (anticancer activity) of human pancreas-a BXPC-3 cell line.; type: functional
DU-145 [3] = assay: Evaluated for growth inhibition (anticancer activity) of Human prostate cancer DU-145 cell line; type: functional
KM-20L2 = assay: Evaluated for growth inhibition (anticancer activity) of Human colon KM20L2 cancer cell line; type: functional
NCI-H460 [4] = assay: Evaluated for growth inhibition (anticancer activity) of Human lung-NSC cancer NCI-H460 cell line; type: functional
SF-295 [5] = assay: Evaluated for growth inhibition (anticancer activity) of Human CNS cancer SF-295 cell line; type: functional
DU-145 [6] = assay: Evaluated for growth inhibition (anticancer activity) in Human prostate cancer DU-145 cell line; type: functional
Staphylococcus aureus = assay: Evaluated for antimicrobial activity against Staphylococcus aureus; type: functional
[7] = test system: Stenotrophomonas maltophilia; assay: Evaluated for antimicrobial activity against Stenotrophomonas maltophilia; type: functional
SF-295 [8] = assay: Evaluated for growth inhibition (anticancer activity) in Human CNS cancer SF-295 cell line; type: functional
RPMI-7951 = assay: Evaluated for growth inhibition (anticancer activity) of Human melanoma cancer RPMI-7951 cell line; type: functional
Micrococcus luteus = assay: Antimicrobial activity against Micrococcus luteus.; type: functional

Sequence of Tubulin alpha chain (P02550 whole entry, looked up): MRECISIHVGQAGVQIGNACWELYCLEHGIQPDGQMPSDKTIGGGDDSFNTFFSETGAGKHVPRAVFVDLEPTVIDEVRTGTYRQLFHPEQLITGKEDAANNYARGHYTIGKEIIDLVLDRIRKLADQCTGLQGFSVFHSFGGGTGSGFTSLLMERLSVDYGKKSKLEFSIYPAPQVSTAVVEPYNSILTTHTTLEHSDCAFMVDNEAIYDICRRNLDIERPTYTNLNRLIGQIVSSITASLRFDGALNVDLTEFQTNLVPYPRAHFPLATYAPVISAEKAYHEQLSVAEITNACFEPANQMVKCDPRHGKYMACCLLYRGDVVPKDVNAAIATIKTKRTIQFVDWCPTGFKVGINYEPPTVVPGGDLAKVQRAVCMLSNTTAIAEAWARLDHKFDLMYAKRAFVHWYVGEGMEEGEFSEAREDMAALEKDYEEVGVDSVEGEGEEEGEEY
Sequence of Tubulin alpha chain (Sus scrofa) (P02550 whole entry, looked up): as above

Row | SMILES | GI50 (P388) [µg/mL] | GI50 (BXPC-3) [µg/mL] | GI50 (DU-145 [3]) [µg/mL] | GI50 (NCI-H460 [4]) [µg/mL] | IC50 (Tubulin alpha chain) [nM] | GI50 (KM-20L2) [µg/mL] | GI50 (SF-295 [5]) [µg/mL] | further results
1 | COc1ccc(Br)c(C=O)c1OC(C)=O | – | – | – | – | – | – | – | MIC (Candida albicans): 12.5 ug disk-1; MIC (Cryptococcus neoformans): 6.25 ug disk-1; MIC (Neisseria gonorrhoeae): 25 ug disk-1; MIC (Escherichia coli): 50 ug disk-1
2 | COc1cc(/C=C\c2ccc(OC)c(OP(=O)([O-])[O-])c2OP(=O)([O-])[O-])cc(OC)c1OC.[Na+].[Na+].[Na+].[Na+] | < 0.01 | 1.5 | – | 0.038 | – | – | 0.036 | GI50 (DU-145 [6]): 0.034 µg/mL
3 | COc1ccc(Br)c(O)c1O | – | – | – | – | – | – | – | MIC (Staphylococcus aureus): 25 ug disk-1; MIC [7]: 25 ug disk-1; MIC (Neisseria gonorrhoeae): <6.25 ug disk-1; MIC (Escherichia coli): 50 ug disk-1
4 | COc1ccc(/C=C\c2cc(OC)c(OC)c(OC)c2)cc1OP(=O)([O-])[O-].[Na+].[Na+] [FOSBRETABULIN DISODIUM] | 0.0004 | – | – | – | > 40000 | 0.53 | – | GI50 (SF-295 [8]): 0.036 µg/mL; GI50 (NCI-H460 [1]): 0.029 µg/mL
5 | COc1ccc(C(=O)c2cc(OC)c(OC)c(OC)c2)c(O)c1O [HYDROXYPHENSTATIN] | 0.315 (≈ 0.942 µM) | 3.5 (≈ 10.5 µM) | 0.048 (≈ 0.144 µM) | 0.21 (≈ 0.628 µM) | 820 | – | 0.04 (≈ 0.12 µM) | inhibition [2]: 77%; GI50 (RPMI-7951): 0.58 µg/mL (≈ 1.73 µM)
6 | COc1ccc(Br)c(C=O)c1O | – | – | – | – | – | – | – | MIC (Candida albicans): 50 ug disk-1; MIC (Cryptococcus neoformans): 12.5 ug disk-1; MIC (Neisseria gonorrhoeae): 12.5 ug disk-1
7 | COc1cc(C(=O)c2ccc(OC)c(OP(=O)([O-])[O-])c2OP(=O)([O-])[O-])cc(OC)c1OC.[Na+].[Na+].[Na+].[Na+] | 0.0336 | 5.3 | 0.3 | 0.35 | > 40000 | 33.5 | 0.23 | –
8 | COc1cc(C(=O)c2ccc(OC)c(OP(=O)(OCc3ccccc3)OCc3ccccc3)c2OP(=O)(OCc2ccccc2)OCc2ccccc2)cc(OC)c1OC | 2.55 (≈ 2.98 µM) | > 10 | > 10 | > 10 | – | 5.9 (≈ 6.9 µM) | > 10 | MIC (Micrococcus luteus): 50 µg/mL (≈ 58.5 µM); GI50 (RPMI-7951): > 10 µg/mL
9 | COCOc1c(OC)ccc(C(=O)c2cc(OC)c(OC)c(OC)c2)c1OCOC | > 10 | > 10 | > 10 | > 10 | – | – | > 10 | inhibition [2]: > 10%; GI50 (RPMI-7951): > 10 µg/mL
10 | COc1cccc(C=O)c1OC(C)=O | – | – | – | – | – | – | – | MIC [7]: 50 ug disk-1; MIC (Cryptococcus neoformans): 25 ug disk-1

Further lines, with some results ahead:

Row | GI50 (P388) [µg/mL] | GI50 (BXPC-3) [µg/mL] | GI50 (DU-145 [3]) [µg/mL] | GI50 (NCI-H460 [4]) [µg/mL] | SMILES | IC50 (Tubulin alpha chain) [nM] | GI50 (KM-20L2) [µg/mL] | GI50 (SF-295 [5]) [µg/mL] | further results
11 | 0.3 (≈ 0.903 µM) | 4.4 (≈ 13.2 µM) | 0.17 (≈ 0.512 µM) | – | COc1ccc(/C=C\c2cc(OC)c(OC)c(OC)c2)c(O)c1O [COMBRETASTATIN A-1] | 1100 | 0.061 (≈ 0.184 µM) | – | GI50 (NCI-H460 [1]): 0.74 µg/mL (≈ 2.23 µM); inhibition [2]: 99.6%
12 | > 10 | 14.2 (≈ 39.2 µM) | 32.5 (≈ 89.7 µM) | 19 (≈ 52.4 µM) | COc1cc(C(=O)c2ccc(OC)c(OC)c2OC)cc(OC)c1OC | – | – | 23.1 (≈ 63.7 µM) | –
13 | 0.0003 (≈ 0.000948 µM) | 0.39 (≈ 1.23 µM) | 0.0008 (≈ 0.00253 µM) | 0.0006 (≈ 0.0019 µM) | COc1ccc(/C=C\c2cc(OC)c(OC)c(OC)c2)cc1O [COMBRETASTATIN A4] | – | 0.34 (≈ 1.07 µM) | > 0.001 | –
